Measurements as given in PubChem BioAssay (NCI).
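All cell lines were grown in 96-well plates and treated with compound for 48 hours. GI50 = concentration required for 50% inhibition of growth. TGI marks complete inhibition of growth.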

What was measured:
Assay in all cases: growth of human tumour cells (NCI), 48 h
[1] = test system: LOX IMVI melanoma
[2] = test system: RXF-631 renal
[3] = test system: OVCAR-4 ovarian
[4] = test system: HOP-62 NSCLC
[5] = test system: HCC-2998 colon
[6] = test system: HOP-92 NSCLC
[7] = test system: SNB-75 CNS
[8] = test system: LXFL 529 NSCLC
[9] = test system: NCI-H460 lung
[10] = test system: SNB-19 CNS
[11] = test system: CCRF-CEM leukemia
[12] = test system: SF-268 CNS
[13] = test system: HCT-15 colon
[14] = test system: ACHN renal
[15] = test system: SW-620 colon
[16] = test system: UACC-62 melanoma
[17] = test system: TK-10 renal
[18] = test system: MOLT-4 leukemia
[19] = test system: SNB-78 CNS
[20] = test system: COLO 205 colon
[21] = test system: A498 renal
[22] = test system: DMS 114 small cell lung
[23] = test system: HT29 colon
[24] = test system: OVCAR-5 ovarian
[25] = test system: SF-295 CNS
[26] = test system: HCT-116 colon
[27] = test system: OVCAR-8 ovarian
[28] = test system: NCI-H23 lung
[29] = test system: MALME-3M melanoma
[30] = test system: UO-31 renal
[31] = test system: U251 CNS
[32] = test system: SN12C renal
[33] = test system: KM20L2 colon
[34] = test system: SK-OV-3 ovarian
[35] = test system: EKVX NSCLC
[36] = test system: IGROV1 ovarian
[37] = test system: RXF 393 renal
[38] = test system: DLD-1 colon
[39] = test system: NCI-H522 lung
[40] = test system: M14 melanoma
[41] = test system: SK-MEL-28 melanoma
[42] = test system: CAKI-1 renal
[43] = test system: KM12 colon
[44] = test system: M19-MEL melanoma
[45] = test system: SR leukemia
[46] = test system: A549 NSCLC
[47] = test system: 786-0 renal
[48] = test system: SK-MEL-5 melanoma
[49] = test system: SF-539 CNS
[50] = test system: RPMI-8226 leukemia
[51] = test system: OVCAR-3 ovarian
[52] = test system: UACC-257 melanoma
[53] = test system: NCI-H226 lung
[54] = test system: SK-MEL-2 melanoma
[55] = test system: K-562 leukemia
[56] = test system: HOP-18 NSCLC
[57] = test system: HL-60(TB) leukemia
[58] = test system: DMS 273 small cell lung
[59] = test system: XF 498 CNS

COC(C(=O)[O][Ge]([CH3])([CH3])[CH3])c1ccccc1 (centres undefined) showed a GI50 [1] greater than 100 µM, a TGI [1] greater than 100 µM and a GI50 [2] greater than 100 µM. For the same compound, the TGI [2] was greater than 100 µM, the GI50 [3] was greater than 100 µM and the TGI [3] was greater than 100 µM. The GI50 [4] was greater than 100 µM, the TGI [4] was greater than 100 µM and the GI50 [5] was greater than 100 µM. For the same compound, the TGI [5] was greater than 100 µM, the GI50 [6] was greater than 100 µM and the TGI [6] was greater than 100 µM. For the same compound, the GI50 [7] was greater than 100 µM, the TGI [7] was greater than 100 µM and the GI50 [8] was greater than 100 µM. The TGI [8] was greater than 100 µM, the GI50 [9] was greater than 100 µM and the TGI [9] was greater than 100 µM. For the same compound, the GI50 [10] was greater than 100 µM, the TGI [10] was greater than 100 µM and the GI50 [11] was greater than 100 µM. It also gave a TGI [11] greater than 100 µM, a GI50 [12] greater than 100 µM and a TGI [12] greater than 100 µM. It also gave a GI50 [13] greater than 100 µM, a TGI [13] greater than 100 µM and a GI50 [14] greater than 100 µM. It also gave a TGI [14] greater than 100 µM, a GI50 [15] greater than 100 µM and a TGI [15] greater than 100 µM. For the same compound, the GI50 [16] was greater than 100 µM, the TGI [16] was greater than 100 µM and the GI50 [17] was greater than 100 µM. It also gave a TGI [17] greater than 100 µM, a GI50 [18] greater than 100 µM and a TGI [18] greater than 100 µM. It also gave a GI50 [19] greater than 100 µM, a TGI [19] greater than 100 µM and a GI50 [20] greater than 100 µM. It also gave a TGI [20] greater than 100 µM, a GI50 [21] greater than 100 µM and a TGI [21] greater than 100 µM. It also gave a GI50 [22] greater than 100 µM, a TGI [22] greater than 100 µM and a GI50 [23] greater than 100 µM. For the same compound, the TGI [23] was greater than 100 µM, the GI50 [24] was greater than 100 µM and the TGI [24] was greater than 100 µM. The GI50 [25] was greater than 100 µM, the TGI [25] was greater than 100 µM and the GI50 [26] was greater than 100 µM. It also gave a TGI [26] greater than 100 µM, a GI50 [27] greater than 100 µM and a TGI [27] greater than 100 µM. For the same compound, the GI50 [28] was greater than 100 µM, the TGI [28] was greater than 100 µM and the GI50 [29] was greater than 100 µM. It also gave a TGI [29] greater than 100 µM, a GI50 [30] greater than 100 µM and a TGI [30] greater than 100 µM. It also gave a GI50 [31] greater than 100 µM, a TGI [31] greater than 100 µM and a GI50 [32] greater than 100 µM. For the same compound, the TGI [32] was greater than 100 µM, the GI50 [33] was greater than 100 µM and the TGI [33] was greater than 100 µM. For the same compound, the GI50 [34] was greater than 100 µM, the TGI [34] was greater than 100 µM and the GI50 [35] was greater than 100 µM. It also gave a TGI [35] greater than 100 µM, a GI50 [36] greater than 100 µM and a TGI [36] greater than 100 µM. The GI50 [37] was greater than 100 µM, the TGI [37] was greater than 100 µM and the GI50 [38] was greater than 100 µM. For the same compound, the TGI [38] was greater than 100 µM, the GI50 [39] was greater than 100 µM and the TGI [39] was greater than 100 µM. The GI50 [40] was greater than 100 µM, the TGI [40] was greater than 100 µM and the GI50 [41] was greater than 100 µM. The TGI [41] was greater than 100 µM, the GI50 [42] was greater than 100 µM and the TGI [42] was greater than 100 µM. It also gave a GI50 [43] greater than 100 µM, a TGI [43] greater than 100 µM and a GI50 [44] greater than 100 µM. For the same compound, the TGI [44] was greater than 100 µM, the GI50 [45] was greater than 100 µM and the TGI [45] was greater than 100 µM. The GI50 [46] was greater than 100 µM, the TGI [46] was greater than 100 µM and the GI50 [47] was greater than 100 µM. It also gave a TGI [47] greater than 100 µM, a GI50 [48] greater than 100 µM and a TGI [48] greater than 100 µM. It also gave a GI50 [49] greater than 100 µM, a TGI [49] greater than 100 µM and a GI50 [50] greater than 100 µM. For the same compound, the TGI [50] was greater than 100 µM, the GI50 [51] was greater than 100 µM and the TGI [51] was greater than 100 µM. For the same compound, the GI50 [52] was greater than 100 µM and the TGI [52] was greater than 100 µM.

Compound O=C(CSc1nnc(-c2ccc(N=Cc3ccc(Cl)cc3)cc2)o1)Nc1ccc(Cl)cc1Cl has a TGI [53] of 58.2 µM, a TGI [3] of 88 µM and a TGI [54] of 47.3 µM. The TGI [4] was 74.5 µM, the TGI [5] was greater than 100 µM and the TGI [6] was 50.5 µM. For the same compound, the TGI [7] was 72.7 µM, the TGI [8] was 96.9 µM and the TGI [9] was greater than 100 µM. It also gave a TGI [10] of 85 µM, a TGI [11] greater than 100 µM and a TGI [12] of 64.9 µM. It also gave a TGI [13] of 52.8 µM, a TGI [14] greater than 100 µM and a TGI [15] greater than 100 µM. For the same compound, the TGI [55] was greater than 100 µM, the TGI [16] was 60.3 µM and the TGI [17] was greater than 100 µM. For the same compound, the TGI [18] was 66 µM, the TGI [19] was greater than 100 µM and the TGI [20] was 78 µM. For the same compound, the TGI [21] was greater than 100 µM, the TGI [23] was 60.5 µM and the TGI [24] was greater than 100 µM. It also gave a TGI [25] of 68.1 µM, a TGI [26] of 38.1 µM and a TGI [27] of 83.7 µM. For the same compound, the TGI [28] was 59.3 µM, the TGI [56] was 39.8 µM and the TGI [29] was 47.5 µM. For the same compound, the TGI [30] was 98.7 µM, the TGI [31] was 69.9 µM and the TGI [57] was greater than 100 µM. It also gave a TGI [32] of 49 µM, a TGI [33] greater than 100 µM and a TGI [34] of 76.7 µM. It also gave a TGI [35] greater than 100 µM, a TGI [36] of 58.7 µM and a TGI [37] greater than 100 µM. The TGI [38] was 60.5 µM, the TGI [39] was 85.9 µM and the TGI [58] was 88.7 µM. It also gave a TGI [40] of 36.1 µM, a TGI [41] of 74.6 µM and a TGI [42] greater than 100 µM. It also gave a TGI [43] of 72.4 µM, a TGI [44] of 88.5 µM and a TGI [46] greater than 100 µM. The TGI [47] was 51.8 µM, the TGI [48] was 63.2 µM and the TGI [59] was 47.9 µM. For the same compound, the TGI [49] was 51.1 µM, the TGI [50] was greater than 100 µM and the TGI [52] was 71.1 µM.

For C/C(=N\NS(=O)(=O)c1ccccc1)c1ccc(Cl)c(Cl)c1, the TGI [53] was greater than 100 µM, the TGI [1] was greater than 100 µM and the TGI [3] was greater than 100 µM. It also gave a TGI [54] greater than 100 µM, a TGI [4] greater than 100 µM and a TGI [5] greater than 100 µM. The TGI [6] was greater than 100 µM, the TGI [7] was greater than 100 µM and the TGI [8] was greater than 100 µM. For the same compound, the TGI [9] was greater than 100 µM, the TGI [11] was greater than 100 µM and the TGI [12] was greater than 100 µM. For the same compound, the TGI [13] was greater than 100 µM, the TGI [14] was greater than 100 µM and the TGI [15] was greater than 100 µM. The TGI [55] was greater than 100 µM, the TGI [16] was greater than 100 µM and the TGI [17] was greater than 100 µM. For the same compound, the TGI [18] was greater than 100 µM, the TGI [19] was greater than 100 µM and the TGI [20] was 85.3 µM. For the same compound, the TGI [21] was greater than 100 µM, the TGI [22] was greater than 100 µM and the TGI [23] was greater than 100 µM. It also gave a TGI [24] greater than 100 µM, a TGI [25] greater than 100 µM and a TGI [26] greater than 100 µM. The TGI [27] was greater than 100 µM, the TGI [28] was greater than 100 µM and the TGI [56] was greater than 100 µM. For the same compound, the TGI [29] was greater than 100 µM, the TGI [30] was greater than 100 µM and the TGI [31] was greater than 100 µM. The TGI [57] was greater than 100 µM, the TGI [32] was greater than 100 µM and the TGI [33] was greater than 100 µM. It also gave a TGI [34] greater than 100 µM, a TGI [35] greater than 100 µM and a TGI [36] greater than 100 µM. The TGI [37] was greater than 100 µM, the TGI [38] was greater than 100 µM and the TGI [58] was greater than 100 µM. For the same compound, the TGI [40] was greater than 100 µM, the TGI [41] was greater than 100 µM and the TGI [42] was greater than 100 µM. It also gave a TGI [43] greater than 100 µM, a TGI [44] greater than 100 µM and a TGI [45] greater than 100 µM. It also gave a TGI [46] greater than 100 µM, a TGI [47] greater than 100 µM and a TGI [48] greater than 100 µM. The TGI [59] was greater than 100 µM, the TGI [49] was greater than 100 µM and the TGI [50] was greater than 100 µM. The TGI [51] was greater than 100 µM and the TGI [52] was greater than 100 µM.
